Results taken from ChEMBL document CHEMBL4651402, “Screening of ~5500 FDA-approved drugs and clinical candidates for anti-SARS-CoV-2 activity” (2021).
Numbered stars: 1 amine (or outer) side, 2 acyl side, 3 side chain; on linkers, the order of the positions; unused ones are H or OH. Bridge positions count the residues as written; N and C are the ends. Square brackets hold non-standard residues; d marks the D form. Peptide text beside a SMILES is read from it. I, II: the chains in the order shown. Actinocin(1to9) = Cc1c2oc3c(C)ccc(C(=O)[*:2])c3nc-2c(C(=O)[*:1])c(N)c1=O; NMeV = CN[C@H](C(=O)O)C(C)C; Sar = CNCC(=O)O

System: SARS-CoV-2
Assay: microbe, parasite or virus in culture
Details: Severe acute respiratory syndrome coronavirus 2, Vero C1008, 48 h

Row | SMILES | IC50 [µM] | IC50 (read-out: pIC50 (converted)) [µM]
1 | CCCN1CCOC2c3cc(O)ccc3CCC21 (configuration not stated) | > 20 | > 20
2 | CC(C)CN(C[C@@H](O)[C@H](Cc1ccccc1)NC(=O)O[C@H]1CCOC1)S(=O)(=O)c1ccc(N)cc1 | > 20 | > 20
3 | CC(=O)N[C@@H]1[C@@H](O)[C@@H](O)[C@@H](CO)O[C@@H]1O | > 20 | > 20
4 | O=P(O)(O)OC[C@H](O)CO | > 20 | > 20
5 | S=C(Nc1ccccc1)Nc1nccs1 | > 20 | > 20
6 | CCN(CC)C(=O)N[C@@H]1CC2c3cccc4[nH]cc(c34)CC2N(C)C1 (some centres not stated) | > 20 | > 20
7 | CC(C)OC(=O)[C@H](C)NP(=O)(OC[C@H]1O[C@@H](n2ccc(=O)[nH]c2=O)[C@](C)(F)[C@@H]1O)Oc1ccccc1 (some centres not stated) | > 20 | > 20
8 | COC(=O)C1=COC(O[C@H]2OC(CO)[C@H](O)C(O)C2O)[C@H]2C1C(=O)C[C@@H]2C (some centres not stated) | > 20 | > 20
9 | CC(C(O)(Cn1cncn1)c1ccc(F)cc1F)S(C)(=O)=O (configuration not stated) | > 20 | > 20
10 | CC(=O)NC1(c2ccccc2)CCN(CC[C@@H](CN(C)C(=O)c2ccccc2)c2ccc(Cl)c(Cl)c2)CC1 | > 20 | > 20
11 | Oc1ccc2c3c1O[C@H]1[C@@H](O)CC[C@@]4(O)C(C2)N(CC2CCC2)CCC314 (some centres not stated) | > 20 | > 20
12 | Cc1c(C(=O)N2CCOc3ccc(-c4ccc(N)nc4)cc3C2)ccc(S(C)(=O)=O)c1F | > 20 | > 20
13 | C[C@H](CN1CCOCC1)C(C(=O)N1CCCC1)(c1ccccc1)c1ccccc1 | > 20 | > 20
14 | O=C(CN1C(=O)c2ccccc2S1(=O)=O)Nc1ccc(O)cc1 | > 20 | > 20
15 | O=C(O)COC[C@H]1CC[C@H](COC(=O)N(c2ccccc2)c2ccc(Cl)cc2)CC1 | > 20 | > 20
16 | CCOC(=O)C1=C(CN2CCOCC2)NC(c2nccs2)=NC1c1ccc(F)cc1Br (configuration not stated) | > 20 | > 20
17 | NC(=O)CC[C@H](NC(=O)Cc1ccccc1)C(=O)O | > 20 | > 20
18 | CCO[C@@H]1OC(=O)C[C@@H]1NC(=O)[C@@H]1CCCN2C(=O)CC[C@H](NC(=O)c3nccc4ccccc34)C(=O)N12 | > 20 | > 20
19 | C[C@H](CCC(=O)NCCS(=O)(=O)O)[C@H]1CC[C@H]2[C@@H]3[C@@H](O)CC4C[C@H](O)CC[C@]4(C)[C@H]3CC[C@]12C (some centres not stated) | > 20 | > 20
20 | C=C1C(=O)OC2C[C@@]3(C)CCC[C@H](C)C3=CC12 (some centres not stated) | > 20 | > 20
21 | CC(C)(O)[C@@H]1CC[C@](C)(C2[C@@H](O)C[C@@]3(C)[C@H]4C[C@H](O[C@H]5OC(CO)[C@H](O)C(O)C5O)[C@H]5C(C)(C)C(O[C@@H]6OC[C@@H](O)C(O)C6O)CC[C@@]56C[C@@]46CC[C@]23C)O1 (some centres not stated) | > 20 | > 20

Row | SMILES | IC50 [µM] | IC50 (read-out: pIC50 (converted)) [µM]
22 | CN(C(=O)CO/N=C(/c1ccccc1)c1ccc2c(c1)CN1CC(=O)NC1=N2)C1CCCCC1 | > 20 | > 20
23 | CNc1nccc(-c2cc3cc(C(=O)N[C@@H](CN(c4ccccc4)c4ncccn4)C(N)=O)ccc3[nH]2)n1 | > 20 | > 20
24 | O=C(O)c1ccc(N[C@H]2OC[C@H](O)[C@@H](O)[C@H]2O)cc1 | > 20 | > 20
25 | CC[C@@H]1CCN[C@H](C(=O)N[C@H]([C@H]2O[C@H](SC)[C@H](O)[C@@H](O)[C@H]2O)[C@H](C)Cl)C1 | > 20 | > 20
26 | CC(C)N(C(=O)CN1C(=O)[C@@H](NC(=O)Nc2cccc(C(=O)O)c2)C(=O)N(c2ccccc2)c2ccccc21)c1ccccc1 | > 20 | > 20
27 | Cc1cc(C)c(CNC(=O)c2cc(Cl)c3c(c2C)OC(C)([C@H]2CC[C@H](N(C)C)CC2)O3)c(=O)[nH]1 (some centres not stated) | > 20 | > 20
28 | C[C@@H]1CC[C@@]2(OC1)O[C@H]1C[C@H]3[C@H]4CC[C@H]5C[C@@H](O[C@@H]6O[C@H](CO)[C@@H](O[C@@H]7O[C@H](CO)[C@@H](O)[C@H](O)[C@H]7O)[C@H](O)[C@H]6O)CC[C@@]5(C)[C@H]4CC[C@]3(C)[C@H]1[C@@H]2C | > 20 | > 20
29 | COC(=O)C1=C(C)NC(C)=C(C(=O)O[C@@H]2CCN(Cc3ccccc3)C2)[C@H]1c1cccc([N+](=O)[O-])c1 | > 20 | > 20
30 | CCOC(=O)[C@H](CCc1ccccc1)CC1(C(=O)N[C@H]2CCc3ccccc3N(CC(=O)O)C2=O)CCCC1 | > 20 | > 20
31 | COc1ccc(CC(C)C(C)Cc2ccc(OC)c(OC)c2)cc1OC (configuration not stated) | > 20 | > 20
32 | O=C(CO)[C@@H]1CCCN1C(=O)[C@@H]1CCCN1C(=O)NCc1ccccc1 | > 20 | > 20
33 | C#CCN(C)C(C)Cc1ccccc1 (configuration not stated) | > 20 | > 20
34 | C[C@H](N)C(=O)N[C@H](CCC(N)=O)C(=O)O (H-Ala-[dQ]-OH) | > 20 | > 20
35 | CC(C)C(NC(=O)C(CC(=O)O)NC(=O)C(CCCCN)NC(=O)C(N)CCCNC(=N)N)C(=O)NC(Cc1ccc(O)cc1)C(=O)O (configuration not stated) (H-RKDVY-OH; configuration not given here) | > 20 | > 20
36 | CC(C)C(N)C(=O)NC(Cc1ccc(O)cc1)C(=O)O (stereo not drawn) (H-Val-Tyr-OH; configuration not given here) | > 20 | > 20
37 | Cc1c2oc3c(C)ccc(C(=O)N[C@@H]4C(=O)N[C@@H](C(C)C)C(=O)N5CCC[C@H]5C(=O)N(C)CC(=O)N(C)[C@@H](C(C)C)C(=O)O[C@@H]4C)c3nc-2c(C(=O)N[C@@H]2C(=O)N[C@@H](C(C)C)C(=O)N3CCC[C@H]3C(=O)N(C)CC(=O)N(C)[C@@H](C(C)C)C(=O)O[C@@H]2C)c(N)c1=O (I: TVP[Sar][NMeV] / II: TVP[Sar][NMeV]; ester I:1-I:C, II:1-II:C; linker I:N-II:N via Actinocin(1to9)) | > 20 | > 20
38 | COc1cc(Br)c(CC2c3cc(OC)c(OC)cc3CCN2C)cc1OC (racemic) | > 20 | > 20
39 | CC(C)CC(NC(=O)CCN)C(=O)O (racemic) | > 20 | > 20
40 | C/N=C(\NS(=O)(=O)c1ccc(Cl)cc1)N1C[C@@H](c2ccccc2)C(c2ccc(Cl)cc2)=N1 (racemic) | > 20 | > 20
41 | CC(C(O)c1ccccc1)N(C)C (racemic) | > 20 | > 20
42 | CC(C)NCC(O)COc1ccc(CC(N)=O)cc1 (racemic) [ATENOLOL] | > 20 | > 20

Row | SMILES | IC50 [µM] | IC50 (read-out: pIC50 (converted)) [µM]
43 | NC(Cc1ccc(Cl)cc1)C(=O)O (racemic) [FENCLONINE] | > 20 | > 20
44 | COC1=CC(=O)O[C@@H](/C=C/c2ccccc2)C1 (racemic) [KAVAIN] | > 20 | > 20
45 | CC(C)N1CCN(c2ccc(N3CCN(c4ccc(OC[C@H]5OC[C@](Cn6cncn6)(c6ccc(F)cc6F)O5)cc4)CC3)cc2)C1=O (racemic) [PRAMICONAZOLE] | > 20 | > 20
46 | CC(CN1CCOCC1)C(C(=O)N1CCCC1)(c1ccccc1)c1ccccc1 (racemic) [RACEMORAMIDE] | > 20 | > 20
47 | CCC(CC)C(c1ccc(Nc2nc3ccccc3s2)cc1)n1cncn1 (racemic) [TALAROZOLE] | > 20 | > 20
48 | C[C@H]1NC(=O)CO[C@@H]1c1ccccc1 (relative stereo) | > 20 | > 20
49 | C[C@@H]1N=C(N)O[C@@H]1c1ccccc1 (relative stereo) | > 20 | > 20
50 | CO[C@H]1C=C2CCN(C)[C@H]2[C@@H]2c3cc4c(cc3C(=O)O[C@H]21)OCO4 (single isomer, unassigned) | > 20 | > 20
51 | COc1ccc2c(O[C@H]3C[C@@H]4C(=O)N[C@@]5(C(=O)NS(=O)(=O)C6CC6)C[C@@H]5/C=C\CCCCN(C)C(=O)[C@H]4C3)cc(-c3nc(C(C)C)cs3)nc2c1C (single isomer, unassigned) | > 20 | > 20
52 | CCCn1c(=O)c2[nH]c(C3CCCC3)nc2n(CCC)c1=O [1,3-DIPROPYL-8-CYCLOPENTYLXANTHINE [DPCPX]] | > 20 | > 20
53 | NC1(C(=O)O)CC1 [1-Aminocyclopropane carboxylic acid] | > 20 | > 20
54 | Cn1cc(CC(N)C(=O)O)c2ccccc21 (configuration not stated) [1-METHYLTRYPTOPHAN] | > 20 | > 20
55 | O=C(/C=C/c1ccccc1)c1ccc(O)cc1O [2',4'-DIHYDROXYCHALCONE] | > 20 | > 20
56 | CC[C@H]1OC(=O)[C@H](C)[C@@H](O[C@H]2C[C@@](C)(OC)[C@@H](O)[C@H](C)O2)[C@H](C)[C@@H](O[C@@H]2O[C@H](C)C[C@H](N(C)C)[C@H]2OC(C)=O)[C@](C)(O)C[C@@H](C)C(=O)[C@H](C)[C@@H](O)[C@]1(C)O [2'-O-ACETYLERYTHROMYCIN A] | > 20 | > 20
57 | O=[N+]([O-])c1ccc(O)c([N+](=O)[O-])c1 [2,4-DINITROPHENOL] | > 20 | > 20
58 | COC1=CC(=O)C=C(OC)C1=O [2,6-DIMETHOXYQUINONE] | > 20 | > 20
59 | CC(=O)c1ccc[nH]1 [2-ACETYLPYRROLE] | > 20 | > 20
60 | CC(O)COC[C@H]1O[C@@H]2O[C@H]3[C@H](O)[C@@H](O)[C@@H](O[C@H]4[C@H](O)[C@@H](O)[C@@H](O[C@H]5[C@H](O)[C@@H](O)[C@@H](O[C@H]6[C@H](O)[C@@H](O)[C@@H](O[C@H]7[C@H](O)[C@@H](O)[C@@H](O[C@H]8[C@H](O)[C@@H](O)[C@@H](O[C@H]1[C@H](O)[C@H]2O)O[C@@H]8COCC(C)O)O[C@@H]7COCC(C)O)O[C@@H]6COCC(C)O)O[C@@H]5COCC(C)O)O[C@@H]4COCC(C)O)O[C@@H]3COCC(C)O (stereo partly drawn) [2-HYDROXYPROPYL-BETA-CYCLODEXTRIN] | > 20 | > 20
61 | O=S(=O)(O)CCS [2-MERCAPTOETHANESULFONIC ACID] | > 20 | > 20
